Laboratory results published in patent US8198293B2, “Oxymatrine compositions and related methods for treating and preventing chronic infectious diseases” (priority 2008, dated 2012).

Legend:
[1] = system: Mycobacterium avium complex (MAC); test: Case report: Mycobacterium avium complex infection of the lung; assay type: in vivo, human
Experimental: A person with known history of Mycobacterium avium complex (MAC) infection of the lung and bronchiectasis for several years was treated with clarithromycin, ethambutol, ciprofloxacin and rifabutin for about five years. […] Intravenous amikacin was added following right middle and left lingula lobectomy. In spite of the above therapy, sputum and repeat bronchial washing obtained by bronchoscopy grew MAC within three weeks. A computed tomography scan of the chest remained unchanged except for the post-surgical changes.
Because of persistent positive cultures despite the four drug therapies, the patient was started on oxymatrine, which they tolerated well. […] Sputum became clear in color then resolved. About two months after the start of oxymatrine, the patient had fevers, flu-like symptoms, increase in non-productive cough, bilateral uveitis and elevation of liver enzymes to 3.5 times normal values. The symptoms lasted two weeks and resolved after tapering dose of oxymatrine to 200 mg bid. Liver enzymes returned to normal within six weeks. […] The anti-MAC medications were discontinued after […] of oxymatrine therapy. The dose of oxymatrine was tapered to 100 mg tid at four and a half months of therapy and then stopped after six months of total therapy. The patient felt well at the six month follow-up.

[2] = system: coxsackievirus B; settings: in vitro, cell cultures; mechanism not defined; cited from earlier work
[3] = system: hepatitis B virus; settings: HBV transgenic mice, cited from earlier work
[4] = system: cytokine gene expression (Th1/Th2); test: Cytokine gene expression study before and during/after oxymatrine; assay type: in vivo, human
Text: FIG. 4 graphically illustrates a cytokine gene expression study before and after oxymatrine (RQ is the gene expression ratio).
FIG. 5 graphically illustrates cytokine gene expression of interleukin-12P35+P40/interleukin-10 in tissue from CFS patients at the start of (pre-oxymatrine) and during oxymatrine therapy (n=17).
A cytokine gene expression study on blood samples before (Sample 2) and after (Sample 3) taking oxymatrine for 15 months in one patient, is graphically illustrated in FIG. 4. […] FIG. 5 illustrates that neutralizing antibodies CBV 3 and CBV 4 were obtained serially over a three year period (performed by ARUP laboratory, Salt Lake City, Utah).

[5] = system: enterovirus protein; test: Immunoperoxidase staining of stomach biopsy for enterovirus protein (5D8/1); assay type: in vivo, human; settings: one patient (case 5), before vs after taking oxymatrine for 6 months; correlated with symptomatic improvement
Text: FIG. 2 illustrates the infected human stomach (biopsy of case 5 stained with 5D8/1) before treatment with oxymatrine.
FIG. 3 illustrates the stomach biopsy of case 5 stained with 5 D8/1 after taking oxymatrine for 6 months.
FIG. 2 illustrates immunoperoxidase staining for enterovirus protein in a stomach biopsy before oxymatrine therapy for one patient. […] The decrease in viral protein correlated with significant symptomatic improvement.

[6] = system: chronic enterovirus infection / chronic fatigue; test: Case reports: treatment of chronic fatigue (Examples 2-5); assay type: in vivo, human
Experimental: A person with episodes of diarrhea while traveling to Tonga developed severe respiratory infection soon thereafter. The symptoms consisted of fevers to 105° F., night sweats, diffuse myalgia, tachycardia, fatigue, sinus congestion and cough, and unresponsiveness to antibiotics. The patient developed profound fatigue thereafter and went on total disability three months after the onset of symptoms. Initial Coxsackie B virus (CBV) 3, CVB4 and echovirus 9 antibody titers were 1:320, 1:160, 1:80 (normal <1:10), respectively.
The patient could not work for the next 18 months. They were started on oxymatrine at 300 mg twice a day (bid). After taking oxymatrine for two months, they were able to take short walks, but still exhausted after one hour of activity requiring five hour naps. At the end of three months of therapy, they started having fevers of 104-105° F. for several days with marked decrease in diffuse myalgia. […] CVB3, CVB4 and echovirus antibody three months after therapy were 1:160, 1:160 and 1:20, respectively.
A person who had recurrent episodes of debilitating fatigue became totally incapacitated after approximately 17 years. […] They went into remission but relapsed nine months later after developing a minor upper respiratory infection. They improved minimally after several months of bed rest, but was barely able to work six hours per day. They had brain fog, myalgia ( 7/10 pain) and was barely able to walk even 1-2 blocks.
Three days after taking oxymatrine at a dose of 300 mg bid, the myalgia intensified ( 10/10 pain), especially one hour after taking the pills. One week after starting oxymatrine, routine laboratory tests including CBC, chemistry panel and creatine phosphokinase (CPK) were normal. They continued having significant fatigue and myalgia for the next three weeks, but the symptoms resolved one week after stopping the medication. Mild increase in myalgia recurred three days after resuming oxymatrine, but resolved after continuing the medication for the next two weeks. The patient felt well at the end of three months with minimal discomfort in a few muscle groups.
Severe myalgia recurred after resuming vigorous exercise for three weeks while taking oxymatrine. They had to stop exercise for the two months allowing cessation of myalgia. After taking oxymatrine for six months, the patient felt well. Over the next six months after stopping the medication, the patient continuously performed heavy physical activities without significant difficulty. After developing another episode of upper respiratory symptoms, their symptoms relapsed. They have resumed oxymatrine but experienced increasing myalgia as the fatigue improved.
A person with a known history of frequent respiratory infections and vasovagal syncope developed respiratory infection, which was followed by bedridden fatigue. Enteroviral protein was detected in the stomach biopsy consistent with chronic enterovirus infection. […] After vigorous exercise, they would still have relapses of bedridden fatigue for one day but continued to work 10-12 hours per day for the next 12 months, walking two miles per day. Laboratory tests were normal while on therapy.
A person developed debilitating fatigue, sore throat, oral ulcers, vertigo, headaches and cognitive dysfunction two months after having a flu-like illness. […] Approximately four years later, the patient started taking oxymatrine. After an initial increase of gastrointestinal symptoms for the first two weeks, the patient tolerated 500 mg per day of oxymatrine.
The symptoms continued for two weeks and resolved after stopping oxymatrine. […] They continued to improve for 12 months after taking the medication.

[7] = system: enterovirus; test: Case report: acute enterovirus infection of the gastrointestinal tract; assay type: in vivo, human; settings: Example 10 patient, 200 mg bid, after ten days
Text: A person developed subacute onset of severe fatigue, nausea, anorexia and progressive weight loss of 20 pounds following an upper respiratory infection.

[8] = compared to placebo-treated animals
[9] = blood samples of one patient before and after 15 months of oxymatrine (FIG. 4)

## O=C1CCC[C@@H]2[C@H]3CCC[N@+]4([O-])CCC[C@@H](CN12)[C@@H]34 [oxymatrine]
[1]; about two months after start, returned to normal within six weeks after dose tapering to 200 mg bid
  elevation of liver enzymes: 3.5 times normal values
[1]; in vivo
  repeat computed tomography scans of the chest: healing and calcifications of the lesions
[1]; six months after onset of oxymatrine therapy, with anti-MAC medications
  repeat bronchial washing culture: no growth of MAC
[1]; within two months
  night sweats: decreased from twice a week to once every two weeks
[2]
  growth inhibition of coxsackievirus B: growth inhibition
[3]; [8]
  level of gamma interferon: increased more than three-fold
  level of interleukin-2: increased more than three-fold
  level of interleukin-4: decreased more than three-fold
  level of interleukin-10: decreased more than three-fold
[3]
  effect on hepatitis B viremia, mRNA and protein levels: No effect
[4]; [9]
  Th1 cytokines gene expression (interleukin-2, interleukin-12, interleukin-15): significant increase
  regulatory Th2 cytokine gene expression (interleukin-10): significant decrease
[4]; seven responders of n=17 CFS patients, pre-oxymatrine vs during therapy (FIG. 5)
  increase of the interleukin-12P35+P40/interleukin-10 gene expression ratio: greater than 2 fold
[4]; ten non-responders of n=17 CFS patients (FIG. 5)
  interleukin-12P35+P40/interleukin-10 gene expression ratio: remained the same or decreased
[5]
  enterovirus protein in stomach biopsy by staining with monoclonal antibody 5D8/1: significant reduction in viral protein
[6]; Example 2 patient
  relapse after therapy: had not relapsed for at least one year
[6]; Example 2 patient, three months after finishing the medication
  clinical outcome: went back to full-time work
[6]; Example 2 patient, calcium resolved after stopping hydrochlorothiazide
  laboratory studies including CBC and complete chemistry panel during therapy: normal except mildly elevated calcium levels
[6]; Example 3 patient, after taking oxymatrine for six months
  clinical outcome: felt well
[6]; Example 3 patient, one week after starting oxymatrine
  routine laboratory tests including CBC, chemistry panel and CPK: normal
[6]; Example 3 patient, three days after starting 300 mg bid, 7/10 before
  myalgia pain score: 10/10
[6]; Example 4 patient
  laboratory tests while on therapy: normal
  tolerability: tolerated well without any adverse reactions
[6]; Example 4 patient, after taking the medication for six weeks
  clinical outcome: returned to full-time work
[6]; Example 5 patient, three months later
  clinical outcome: able to return to part-time work and regular exercise
[6]; Example 5 patient, two months on 500 mg per day, resolved after stopping oxymatrine
  symptoms during therapy: severe diffuse ulcerations of the mouth mucosa, increasing headache, sinus congestion and severe myalgia
[7]
  clinical outcome: resumed their normal activity
